Test results published in patent US20070021418A1, “Method of inhibiting production of osteopontin” (Kowa Co., LTD., priority 2003, published 2007).

test system: OPN production in RPMI8226 cells; assay: OPN production inhibiting effect in cultured RPMI8226 cells (ELISA of culture supernatant); assay type: cell-based, human; details: Homo sapiens, RPMI-8226, 72 h; RPMI8226 myeloma cells; 3 days prophase + 3 days anaphase culture; 0.1-10 μmol/L; OPN in culture supernatant by ELISA; logistic curve; read-out: IC50 (OPN production inhibition)
Procedure: Compounds 1 to 6 were separately dissolved in dimethylsulfoxide (DMSO) to prepare 20 mmol/L solutions of the respective compounds. Aliquots of those solutions were diluted further to prepare 6, 2, 0.6 and 0.2 mmol/L solutions of the respective compounds. The DMSO solutions of the respective compounds (1 to 6) (concentrations: 0.2 to 20 mmol/L) and DMSO (as a compound non-addition group) were separately diluted 1,000-fold with a culture medium (10% fetal-bovine-serum (FBS)-added RPMI-1640 medium) to prepare 0 (non-addition group), 0.2, 0.6, 2, 6 and 20 μmol/L solutions of the respective compounds (1-6).
3) Study on the OPN Production Inhibiting Effect of the Individual Compounds in RPMI8226 Cells
A 2×10^5 cells/mL cell suspension of RPMI8226 cells was prepared, and was seeded 2 mL by 2 mL per well on a 6-well plates. To the wells, the individual solutions prepared in the procedure 2) (the solutions of Compounds 1 to 6, having concentrations of 0 (non-addition group), 0.2, 0.6, 2, 6, and 20 μmol/L, respectively) were added 2 mL by 2 mL per well, followed by mixing to bring the final concentrations of Compound 1-6 in the individual wells to 0 (non-added group), 0.1, 0.3, 1, 3 and 10 μmol/L. The cells of those conditions were cultured as prophase culture at 37° C. for 3 days in the presence of 5% CO2.
After the above-described culture, the cells in the respective wells were collected, and were counted well by well. Those cells were again suspended separately in aliquots of a 2×10^5 cells/mL suspension, and the cells of the respective conditions were each seeded 0.5 mL by 0.5 mL per well in two wells. To the wells of the respective conditions, individual solutions prepared at the same concentrations as those at the time of the culture in a similar manner as in the prophase culture (individual solutions of Compounds 1 to 6, having concentrations of […], respectively) were added 0.5 mL by 0.5 mL per sell to the individual wells. After mixing, the cells were cultured as anaphase culture at 37° C. for 3 days in the presence of 5% CO2.
Subsequent to the completion of the anaphase culture, culture supernatants were separately collected from the respective wells, and the OPN concentrations in the individual culture supernatants were quantitated with an absorptiometer by ELISA (Human Osteopontin Measurement Kit IBL; IBL Co., Ltd.).
Using the SAS Preclinical Package, Version 5.0, the measurement values were analyzed by the following procedure. Described specifically, the concentrations were logarithmically converted (the compound non-addition group (0 μmol/L) was replaced by 1 pmol/L), and using the measurement values (6 concentrations, 2 measurement values per concentration, 12 measurement values in total), plotting into a logistic curve was conducted. From the curve, concentrations (IC50) which give 50% reactivity were calculated.

Row | IC50 [nM] | Structure (SMILES)
1 | 2090 | CSc1ccc(-c2nn(Cc3ccccn3)c(=S)cc2-c2ccc(Cl)cc2)cc1 [Compound 1, 5-(4-chlorophenyl)-6-[4-(methylthio)phenyl]-2-(2-pyridylmethyl)-2H-pyridazine-3-thione methanesulfonate]
2 | 2910 | CSc1ccc(-c2nn(Cc3cccnc3)c(=O)cc2-c2ccc(Cl)cc2)cc1 [Compound 2, 5-(4-chlorophenyl)-6-[4-(methylthio)phenyl]-2-(3-pyridylmethyl)-2H-pyridazin-3-one methanesulfonate]
3 | 2760 | COc1ccc(-c2cc(=O)n(CC=Cc3ccc(Cl)cc3)nc2-c2ccc(OC)cc2)cc1 [Compound 3, 5,6-bis(4-methoxyphenyl)-2-(4-chlorocinnamyl)-2H-pyridazin-3-one]
4 | 2560 | CSc1ccc(-c2nn(Cc3ccccc3)c(=O)cc2-c2ccc(Cl)cc2)cc1 [Compound 4, 2-benzyl-5-(4-chlorophenyl)-6-[4-(methylthio)phenyl]-2H-pyridazin-3-one]
5 | 1120 | CCn1nc(-c2ccc(OC)cc2)c(-c2ccc(OC)cc2)cc1=O [Compound 6, 5,6-bis(4-methoxyphenyl)-2-ethyl-2H-pyridazin-3-one]

same assay, conditions: RPMI8226 myeloma cells; 3 days prophase + 3 days anaphase culture; 0.1-10 μmol/L; OPN in culture supernatant by ELISA; logistic curve; read-out: IC50 (OPN production inhibition)

Row | IC50 [nM] | Structure (SMILES)
6 | 2420 | COc1ccc(-c2nn(Cc3ccc(Cl)cc3)c(=O)cc2-c2ccncc2)cc1 [Compound 5]
